From the Kinase Knowledgebase extract (Sharma et al. 2016) come the findings set out here.

SMILES strings stand for the structures.

Experiment [1] has as its target CDK2 (UniProt P24941). The experiment in a line: Enzyme Assay.
Experiment [2] concerns the target CDK2 (UniProt P24941). The experiment in a line: Enzyme Assay. Conditions: for inhibition: concentration not given here.
Another experiment addresses MAPK14 (human) (UniProt Q16539). The experiment in a line: Inhibition of MAPK14 Kinase Activity. Conditions: for inhibition: concentration not given here.
Another experiment has as its target ROCK2 (rat) (UniProt Q62868). In words: Inhibition of ROCK2 Kinase Activity. Conditions: concentration not given here.

Sequence of MAPK14 (human) (Q16539 whole entry, looked up): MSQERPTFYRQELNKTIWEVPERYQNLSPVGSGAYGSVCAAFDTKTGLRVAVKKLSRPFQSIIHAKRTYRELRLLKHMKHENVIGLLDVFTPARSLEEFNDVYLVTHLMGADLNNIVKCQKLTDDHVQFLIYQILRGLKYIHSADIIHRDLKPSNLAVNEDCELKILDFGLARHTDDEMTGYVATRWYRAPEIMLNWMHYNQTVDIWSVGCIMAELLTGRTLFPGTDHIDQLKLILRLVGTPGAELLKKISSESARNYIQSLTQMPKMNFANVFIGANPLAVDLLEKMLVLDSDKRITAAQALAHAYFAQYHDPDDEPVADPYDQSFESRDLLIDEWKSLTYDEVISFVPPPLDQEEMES
Sequence of ROCK2 (rat) (Q62868 whole entry, looked up): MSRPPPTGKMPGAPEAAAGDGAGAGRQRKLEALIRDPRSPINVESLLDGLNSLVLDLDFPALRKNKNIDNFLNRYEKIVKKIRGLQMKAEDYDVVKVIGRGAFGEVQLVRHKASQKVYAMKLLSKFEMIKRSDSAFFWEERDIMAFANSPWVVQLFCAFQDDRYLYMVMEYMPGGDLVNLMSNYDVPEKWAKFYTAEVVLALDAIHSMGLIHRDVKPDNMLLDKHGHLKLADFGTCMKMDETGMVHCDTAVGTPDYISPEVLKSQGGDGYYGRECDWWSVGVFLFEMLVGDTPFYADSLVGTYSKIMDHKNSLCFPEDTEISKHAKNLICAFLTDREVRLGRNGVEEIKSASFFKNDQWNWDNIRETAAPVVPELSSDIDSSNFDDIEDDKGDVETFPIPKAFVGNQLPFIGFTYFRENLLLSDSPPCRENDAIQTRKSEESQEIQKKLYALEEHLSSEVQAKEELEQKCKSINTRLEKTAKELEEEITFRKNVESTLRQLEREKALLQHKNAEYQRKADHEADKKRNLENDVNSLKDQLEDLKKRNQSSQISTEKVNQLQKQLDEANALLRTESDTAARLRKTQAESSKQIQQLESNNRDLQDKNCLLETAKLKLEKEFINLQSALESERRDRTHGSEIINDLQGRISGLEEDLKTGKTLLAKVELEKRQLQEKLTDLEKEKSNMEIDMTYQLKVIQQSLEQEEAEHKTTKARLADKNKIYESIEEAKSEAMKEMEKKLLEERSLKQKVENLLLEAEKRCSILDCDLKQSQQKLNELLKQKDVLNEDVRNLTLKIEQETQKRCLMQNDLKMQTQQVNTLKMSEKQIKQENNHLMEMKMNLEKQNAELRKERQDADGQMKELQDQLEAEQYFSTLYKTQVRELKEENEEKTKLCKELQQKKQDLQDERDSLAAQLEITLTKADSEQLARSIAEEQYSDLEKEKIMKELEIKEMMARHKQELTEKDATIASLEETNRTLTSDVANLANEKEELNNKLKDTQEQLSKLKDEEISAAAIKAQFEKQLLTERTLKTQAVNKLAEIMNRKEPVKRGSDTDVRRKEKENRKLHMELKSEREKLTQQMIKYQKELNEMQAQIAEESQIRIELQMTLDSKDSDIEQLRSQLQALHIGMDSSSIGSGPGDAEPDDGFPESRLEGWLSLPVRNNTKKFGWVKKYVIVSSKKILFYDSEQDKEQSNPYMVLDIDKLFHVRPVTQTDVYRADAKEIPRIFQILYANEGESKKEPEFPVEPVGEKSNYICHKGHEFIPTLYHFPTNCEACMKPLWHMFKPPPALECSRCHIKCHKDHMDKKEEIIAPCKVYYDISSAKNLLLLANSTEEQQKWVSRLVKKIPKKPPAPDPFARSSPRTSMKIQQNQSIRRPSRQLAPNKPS

A word on the IC50: it is the concentration that inhibits the measured activity by half. Read a high IC50 as weaker potency in that assay. Regarding `CNc1nc(C)c(-c2ccnc(Nc3ccc(C)c(Br)c3)n2)s1`, the IC50 on CDK2 [1] was 320 nM. The compound `CCNc1nc(C)c(-c2ccnc(Nc3ccc(CNC(C)=O)cc3)n2)s1` registered a half-maximal inhibitory concentration (IC50) at CDK2 [2] of 120 nM. In other words, the sub-micromolar range. `CCNc1nc(C)c(-c2ccnc(Nc3ccc(S(=O)(=O)NCc4ccccc4)cc3)n2)s1`: at CDK2 [2], the IC50 is 3200 nM. On MAPK14 (human), `CNc1nc(C)c(-c2ccnc(Nc3ccc(S(N)(=O)=O)cc3)n2)s1` had a concentration for half-maximal inhibition (IC50) above 10000 nM. On to `CCNc1nc(C)c(-c2ccnc(Nc3cccc(CC(=O)OCCOC)c3)n2)s1`, for which the half-inhibitory concentration (IC50) against CDK2 [2] worked out at 3200 nM. Turning to `Cc1nc(NC(C)(C)C)sc1-c1ccnc(Nc2ccc(N3CCOCC3)cc2)n1`, the IC50 against CDK2 [1] came to 120 nM. Consider `Cc1nc(C)c(-c2ccnc(Nc3cccc(S(C)(=O)=O)c3)n2)s1`, for which the IC50 against CDK2 [1] is 320 nM. On the same count and under the same terms, the same measure for `Cc1nc(C)c(-c2ccnc(Nc3cccc(N4CCOCC4)c3)n2)s1`: 320 nM; for `COCCOC(=O)COc1cccc(Nc2nccc(-c3sc(N)nc3C)n2)c1`: 1000 nM. On the same count and under the same terms, with `CCNS(=O)(=O)c1ccc(Nc2nccc(-c3sc(C)nc3C)n2)cc1` the figure was 60 nM; with `COc1cc(Nc2nccc(-c3sc(CO)nc3C)n2)ccc1N1CCOCC1`, 2510 nM; with `Cc1nc(N)sc1-c1ccnc(Nc2cccc(CNS(=O)(=O)C(F)(F)F)c2)n1`, 60 nM.

A word on the inhibition: it is the drop in the measured response relative to a control, in per cent. The low end stands for little suppression, the high end for strong suppression. Consider `Cc1nc(CS(=O)(=O)c2cccs2)sc1-c1ccnc(Nc2ccc(N3CCOCC3)cc2)n1`, for which the values for the inhibition against MAPK14 (human), at CDK2 [2] and on ROCK2 (rat) were 67%, 91% and 86%, respectively. For `CNc1nc(C)c(-c2ccnc(Nc3ccc(S(=O)(=O)NCCO)cc3)n2)s1`, at CDK2 [1], the half-maximal inhibitory concentration (IC50) was 6 nM.

`CNc1nc(C)c(-c2ccnc(Nc3ccc(OC)c(C)c3)n2)s1`: the 50% inhibitory concentration (IC50) against CDK2 [1] was found to be 120 nM. In turn, `Cc1nc(N)sc1-c1ccnc(Nc2ccc(S(=O)(=O)NCc3ccccc3)cc2)n1` returned an IC50 on CDK2 [1] of 12 nM.

On CDK2 [2], `CCNc1nc(C)c(-c2ccnc(Nc3ccc(S(=O)(=O)NCCOC)cc3)n2)s1` gave an IC50 of 12 nM. `CCNc1nc(C)c(-c2ccnc(Nc3cccc(S(=O)(=O)NCC)c3)n2)s1` had an IC50 at CDK2 [1] of 320 nM. This counts as sub-micromolar.

`CNc1nc(C)c(-c2ccnc(Nc3cccc(S(=O)(=O)NC)c3)n2)s1` had an IC50 against CDK2 [1] of 60 nM.

Take `CNc1nc(C)c(-c2ccnc(Nc3ccc(S(C)(=O)=O)cc3)n2)s1`: the IC50 on CDK2 [1] is 2 nM. Consider `CNc1nc(C)c(-c2ccnc(Nc3cc(OC)cc(OC)c3)n2)s1`, for which the IC50 at CDK2 [1] was found to be 320 nM. Against the preceding compound, the IC50 is about 160-fold higher. At CDK2 [1], `Cc1nc(N(C)c2cccnc2)sc1-c1ccnc(Nc2ccc(N3CCOCC3)cc2)n1` came in with an IC50 of 3200 nM. Regarding `CNc1nc(C)c(-c2ccnc(Nc3cccc(S(C)(=O)=O)c3)n2)s1`, the IC50 at MAPK14 (human) is above 10000 nM; at CDK2 [2], 6 nM. Compound `Cc1nc(C)c(-c2ccnc(Nc3cccc(S(=O)(=O)NCCO)c3)n2)s1` yielded an IC50 on CDK2 [1] of 320 nM. This counts as sub-micromolar.

Consider `CNc1nc(C)c(-c2ccnc(Nc3cccc(S(=O)(=O)NC(C)=O)c3)n2)s1`, for which the IC50 against CDK2 [2] came to 3200 nM.

In turn, `Cc1nc(N)sc1-c1ccnc(Nc2cccc(S(=O)(=O)NCCO)c2)n1` showed an IC50 against CDK2 [1] of 120 nM. On the same count and under the same terms, with `CNc1nc(C)c(-c2ccnc(Nc3ccc(S(=O)(=O)NCCOC)cc3)n2)s1` the figure was 3 nM. As to `CCNc1nc(C)c(-c2ccnc(Nc3ccc(N4CCNCC4)cc3)n2)s1`, the figures for the inhibition against MAPK14 (human), on CDK2 [2] and against ROCK2 (rat) were 61%, 99% and 95%, respectively. In addition, the concentration for half-maximal inhibition (IC50) against CDK2 [2] came to 50 nM; at CDK2 [1], 251 nM. As for `CNc1nc(C)c(-c2ccnc(Nc3ccc(C)c(S(=O)(=O)N4CCOCC4)c3)n2)s1`, the IC50 at MAPK14 (human) is above 10000 nM; against CDK2 [1], 3200 nM. With `COCCNS(=O)(=O)c1cccc(Nc2nccc(-c3sc(N)nc3C)n2)c1`, the IC50 against MAPK14 (human) was above 10000 nM; against CDK2 [1] it was 260 nM. In the case of `CNc1nc(C)c(-c2ccnc(Nc3cccc(S(=O)(=O)NCCO)c3)n2)s1`, on CDK2 [1], the IC50 stood at 320 nM.

At CDK2 [2], `CCNc1nc(C)c(-c2ccnc(Nc3ccc(N4CCN(Cc5ccccc5)CC4)cc3)n2)s1` gave a half-maximal inhibitory concentration (IC50) of 3200 nM. In other words, the single-digit micromolar range. Turning to `Cc1nc(N)sc1-c1ccnc(Nc2cccc(S(=O)(=O)N3CCOCC3)c2)n1`, at CDK2 [1], the IC50 stood at 3200 nM.

As to `CCNc1nc(C)c(-c2ccnc(Nc3ccc(S(N)(=O)=O)cc3)n2)s1`, on CDK2 [2], the IC50 amounted to 6 nM.

`CCOC(=O)Cc1cccc(NS(=O)(=O)c2ccc(Nc3nccc(-c4sc(NC)nc4C)n3)cc2)c1` had an IC50 on CDK2 [2] of 3200 nM.

`Cc1ccc(Nc2nccc(-c3sc(N)nc3C)n2)cc1S(=O)(=O)N1CCOCC1` gave an IC50 on MAPK14 (human) above 10000 nM.
